In PMC10503797, “Allosteric modulator potentiates β2AR agonist–promoted bronchoprotection in asthma models” (The Journal of Clinical Investigation, 2023):
“And” between values parts separate entries of the source, which are not always exact repeats. Equal values may be shown once. Read-outs that look alike come from different tables or passages of the source.

What was measured:
[1] = system: guinea pig lung slices; test: Methacholine-induced airway constriction in guinea pig lung slices; format: cell-based; conditions: for MCh-induced airway constriction response (Figure 5D): Exp1-6; for EC50: Cavia porcellus
Procedure: All curve fits were generated using the software program GraphPad Prism. Data are represented as mean ± SEM obtained from 6 guinea pigs.
(§1) Precision-cut lung slices were prepared as described previously ([61], [62]). A 3% solution of low melting-point agarose (Gerbu Biotechnik GmbH) in ultrapure water was prepared by heating it a microwave until fully dissolved. […] After filling, the lungs were covered with ice for 30 minutes to solidify the agarose for slicing. […] Lung slices were cut at a thickness of 500 μm and washed several times with slicing buffer to remove debris and washout the isoproterenol. Slices were incubated overnight in a 60 mm dish in sterile incubation buffer: MEM composed of lung slice buffer supplemented with 0.5 mM sodium pyruvate, 1 mM glutamine (Gibco), MEM-amino acids mixture (1:50), MEM-vitamins mixture (1:100; Gibco), and penicillin-streptomycin (1:100; Gibco), pH = 7.2, at 37°C in a CO2- and humidity-controlled atmosphere.
(§2) After washing the slices in medium, individual guinea pig lung slices were mechanically maintained with a Teflon ring with an inner diameter of 7 mm and covered with 1 mL of incubation buffer. […] Image acquisition software (NIS-Elements, Nikon) was used to quantify airway luminal area. Images of the airways were acquired every 2 seconds during the whole course of the experiment, starting 2 minutes before the addition of any agent to allow for baseline measurements of the airway caliber. For each methacholine or ovalbumin concentration, the maximal airway constriction was expressed as percentage of the initial (baseline) airway luminal area and plotted against that concentration.

[2] = biological target: guinea pig β2AR (Cavia porcellus, UniProt Q8K4Z4); test: 125I-CYP radioligand competition binding, guinea pig β2AR; conditions: DMSO, listed as FEN
Sequence of guinea pig β2AR (Q8K4Z4 whole entry): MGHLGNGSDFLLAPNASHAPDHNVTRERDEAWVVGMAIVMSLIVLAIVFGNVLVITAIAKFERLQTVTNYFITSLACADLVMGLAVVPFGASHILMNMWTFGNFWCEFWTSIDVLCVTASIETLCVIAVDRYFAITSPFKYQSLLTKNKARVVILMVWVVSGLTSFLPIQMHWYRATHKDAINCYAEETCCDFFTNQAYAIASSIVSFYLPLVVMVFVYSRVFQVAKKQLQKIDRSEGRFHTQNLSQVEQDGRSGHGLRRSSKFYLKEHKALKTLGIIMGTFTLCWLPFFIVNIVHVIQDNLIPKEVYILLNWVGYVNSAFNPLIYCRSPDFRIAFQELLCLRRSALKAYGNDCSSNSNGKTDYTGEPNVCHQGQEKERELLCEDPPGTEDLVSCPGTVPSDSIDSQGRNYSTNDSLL

[3] = system: lung slices obtained from ovalbumin-sensitized guinea pigs; test: Ovalbumin-induced airway constriction in lung slices from ovalbumin-sensitized guinea pigs; format: cell-based, guinea pig; conditions: 0.1 µM Fenoterol, Exp1-5
From the text: All curve fits were generated using the software program GraphPad Prism. Data are represented as mean ± SEM of 4–5 guinea pigs (see Table 2 for statistical analyses).
Outbred, male, specified pathogen-free Dunkin Hartley guinea pigs (Charles River Laboratory) weighing 200 to 400 g were used. The animals were housed in pairs under a 12-hour light/dark cycle in a temperature- and humidity-controlled room with food and tap water ad libitum. For studies in the guinea pig model of allergic asthma, animals were actively IgE-sensitized to ovalbumin by injecting a suspension containing 100 μg/mL ovalbumin and 100 mg/mL Al(OH)3 in saline. Each animal was injected with 1.0 mL of suspension: 0.5 mL was injected i.p. and 0.5 mL was divided over 7 s.c. sites close to lymph nodes in the neck, paws, and lumbar regions ([24]). Animals were euthanized at least 4 weeks after sensitization.
as §1, §2

[4] = 10 µM Fenoterol, -Log [MCh] 6.5
[5] = 10 µM Fenoterol, -Log [MCh] 7.5

## CC(Cc1ccc(O)cc1)NCC(O)c1cc(O)cc(O)c1 (centres unmarked) [Fenoterol, fenoterol]
[1]; 1 µM Fenoterol, -Log [MCh] 2.5
  airway area in MCh concentration-response (Figure 5A/5C): 0.0
[1]; 1 µM Fenoterol, -Log [MCh] 3
  airway area in MCh concentration-response (Figure 5A/5C): 0.0
[1]; 1 µM Fenoterol, -Log [MCh] 3.5
  airway area in MCh concentration-response (Figure 5A/5C): 0.0
[1]; 1 µM Fenoterol, -Log [MCh] 4
  airway area in MCh concentration-response (Figure 5A/5C): 0.0
[1]; 1 µM Fenoterol, -Log [MCh] 4.5
  airway area in MCh concentration-response (Figure 5A/5C): 0.0
[1]; 1 µM Fenoterol, -Log [MCh] 7
  airway area in MCh concentration-response (Figure 5A/5C): 100.3 and 103.0 and 66.3 and 92.9 and 96.6
[1]; 1 µM Fenoterol, -Log [MCh] 7.5
  airway area in MCh concentration-response (Figure 5A/5C): 101.4 and 100.4 and 106.4 and 96.3
[1]; 1 µM Fenoterol, -Log [MCh] 8
  airway area in MCh concentration-response (Figure 5A/5C): 99.1 and 105.8 and 109.5 and 112.9
[1]; [4]
  airway area in MCh concentration-response (Figure 5A/5C): 59.0 and 89.4 and 82.6 and 83.1 and 91.0 and 74.6
  MCh-induced airway constriction response (Figure 5D): 59.0 and 89.4 and 82.6 and 83.1 and 91.0 and 74.6
[1]; 10 µM Fenoterol, -Log [MCh] 7
  airway area in MCh concentration-response (Figure 5A/5C): 77.1 and 109.6 and 109.2 and 101.3 and 91.9
  MCh-induced airway constriction response (Figure 5D): 77.1 and 109.6 and 109.2 and 101.3 and 91.9
[1]; [5]
  airway area in MCh concentration-response (Figure 5A/5C): 94.2 and 110.7 and 102.7 and 105.1
  MCh-induced airway constriction response (Figure 5D): 94.2 and 110.7 and 102.7 and 105.1
[1]; 10 µM Fenoterol, -Log [MCh] 8
  airway area in MCh concentration-response (Figure 5A/5C): 106.3 and 110.5 and 104.8
  MCh-induced airway constriction response (Figure 5D): 106.3 and 110.5 and 104.8
[1]; 100 µM Fenoterol, -Log [MCh] 6.5
  MCh-induced airway constriction response (Figure 5D): 82.5 and 88.6 and 98.9 and 92.2 and 82.0
[1]; 100 µM Fenoterol, -Log [MCh] 7
  MCh-induced airway constriction response (Figure 5D): 98.1 and 101.4 and 98.8 and 109.0 and 104.9
[1]; 100 µM Fenoterol, -Log [MCh] 7.5
  MCh-induced airway constriction response (Figure 5D): 106.4 and 100.0 and 110.6 and 99.9
[1]; 100 µM Fenoterol, -Log [MCh] 8
  MCh-induced airway constriction response (Figure 5D): 101.0 and 105.4 and 99.3 and 99.7
[1]; read-out: MCh EC50, 1 μM Fenoterol
  EC50: 370 ± 80 nM
[1]; read-out: MCh EC50, 10 μM Fenoterol
  EC50: 560 ± 30 nM
[1]; read-out: MCh EC50, 100 μM Fenoterol
  EC50: 1000 ± 150 nM
[2]; Log [FEN] (M) -4.49485
  125I-CYP binding, FEN competition curve (Figure 4D): 3.006 and 3.081 and 4.379 and 2.482
[2]; Log [FEN] (M) -5.09691
  125I-CYP binding, FEN competition curve (Figure 4D): 10.5632 and 11.6008 and 14.5744 and 11.1845
[2]; Log [FEN] (M) -5.69897
  125I-CYP binding, FEN competition curve (Figure 4D): 27.5943 and 31.6003 and 36.8549 and 31.4566
[2]; Log [FEN] (M) -6.30103
  125I-CYP binding, FEN competition curve (Figure 4D): 58.2352 and 64.6742 and 67.2527 and 62.2696
[2]; Log [FEN] (M) -6.90309
  125I-CYP binding, FEN competition curve (Figure 4D): 83.5341 and 84.3533 and 88.9652 and 87.8637
[2]; Log [FEN] (M) -7.50515
  125I-CYP binding, FEN competition curve (Figure 4D): 93.701 and 97.0547 and 97.6505 and 97.0492
[2]; Log [FEN] (M) -8.10721
  125I-CYP binding, FEN competition curve (Figure 4D): 100.713 and 99.5295 and 100.092
[2]; Log [FEN] (M) -8.70927
  125I-CYP binding, FEN competition curve (Figure 4D): 98.7203 and 100.799 and 100.482
[2]; Log [FEN] (M) -9.31133
  125I-CYP binding, FEN competition curve (Figure 4D): 101.392 and 100.992 and 100.128
[2]; Log [FEN] (M) -9.91339
  125I-CYP binding, FEN competition curve (Figure 4D): 99.9817 and 101.061 and 100.058 and 101.342
[3]; [OVA] 0.001 ng/ml
  OVA-induced airway constriction response (Figure 6): 100.0 and 98.0 and 100.9
[3]; [OVA] 0.01 ng/ml
  OVA-induced airway constriction response (Figure 6): 100.0 and 105.5 and 96.2 and 100.8
[3]; [OVA] 0.1 ng/ml
  OVA-induced airway constriction response (Figure 6): 100 and 99.0
[3]; [OVA] 1 ng/ml
  OVA-induced airway constriction response (Figure 6): 100.0 and 109.4 and 99.5 and 95.4
[3]; [OVA] 10 ng/ml
  OVA-induced airway constriction response (Figure 6): 109.1 and 98.9 and 69.5
